Where two headings read alike, the source gives them in different places.
Key:
Format in all cases: cell-based
[1] = test system: Citrobacter freundii (CFR) isolates; test: MIC of compounds alone and combined with antibacterials, broth microdilution (CLSI)
Protocol: (§1) Method 2: MIC of Compounds Alone and Combined with Antibacterials Against Bacterial Isolates
(§2) Compounds of the present invention were assessed against genotyped bacterial strains (Table 3, 4) alone or in combination with an antibacterial (Table 2). […] Log phase bacterial suspensions were adjusted to a final density of 5.10^5 CFU/mL in cation-adjusted Mueller-Hinton broth (ca-MHB; Becton-Dickinson and Company) and added to each well (98 μL). Microplates were incubated for 16-20 h at 35° C. in ambient air. The MIC of the compounds was defined as the lowest concentration of said compounds that prevented bacterial growth as read by visual inspection. The MIC of ATB at each compound concentration was defined as the lowest concentration of ATB that prevented bacterial growth as read by visual inspection.

[2] = test system: Citrobacter koseri (CKR) isolates; test: as above
Protocol: as §1, §2

[3] = test system: Enterobacter aerogenes (EAE) isolates; test: as above
Protocol: as §1, §2

[4] = test system: Morganella morganii (MMO) isolates; test: as above
Protocol: as §1, §2

[5] = test system: Proteus mirabilis (PMI) isolates; test: microbe, parasite or virus in culture
Protocol: as §1, §2

[6] = Citrobacter freundii, strain CFR UFR251, compound alone, read-out: MIC
[7] = Citrobacter koseri, CKO ROU, alone, read-out: MIC
[8] = Citrobacter koseri, CKO UFR149, alone, read-out: MIC
[9] = Citrobacter koseri, CKO UFR150, alone, read-out: MIC
[10] = Klebsiella aerogenes, EAE 49469, alone, read-out: MIC
[11] = Klebsiella aerogenes, EAE 200261, alone, read-out: MIC
[12] = Klebsiella aerogenes, EAE UFR199, alone, read-out: MIC
[13] = Klebsiella aerogenes, EAE UFR201, alone, read-out: MIC
[14] = Klebsiella aerogenes, EAE UFR202, alone, read-out: MIC
[15] = Klebsiella aerogenes, EAE UFR207, alone, read-out: MIC
[16] = Klebsiella aerogenes, EAE UFR213, alone, read-out: MIC
[17] = Morganella morganii, MMO 200321, alone, read-out: MIC
[18] = Morganella morganii, MMO UFR144, alone, read-out: MIC
[19] = Morganella morganii, MMO UFR240, alone, read-out: MIC
[20] = Morganella morganii, MMO UFR241, alone, read-out: MIC
[21] = Morganella morganii, MMO UFR242, alone, read-out: MIC
[22] = Morganella morganii, MMO UFR243, alone, read-out: MIC
[23] = Morganella morganii, MMO UFR244, alone, read-out: MIC
[24] = Morganella morganii, MMO UFR245, alone, read-out: MIC
[25] = Morganella morganii, MMO UFR246, alone, read-out: MIC
[26] = Morganella morganii, MMO UFR247, alone, read-out: MIC
[27] = Morganella morganii, strain MMO UFR145, compound alone, read-out: MIC
[28] = Proteus mirabilis, PMI UFR128, alone, read-out: MIC
[29] = Proteus mirabilis, PMI UFR129, alone, read-out: MIC
[30] = Proteus mirabilis, PMI UFR130, alone, read-out: MIC
[31] = Proteus mirabilis, strain PMI UFR132, compound alone, read-out: MIC

SMILES: O=C1N2CC(n3cccn3)=CC(C2)N1OC(F)(F)C(=O)[O-].[Li+] (stereo not drawn) [AF3]
- MIC ([1]; Citrobacter freundii, CFR UFR10, alone, read-out: MIC): 16 µg/mL
- MIC ([1]; Citrobacter freundii, CFR UFR11, alone, read-out: MIC): > 32 µg/mL
- MIC ([1]; Citrobacter freundii, CFR UFR37, alone, read-out: MIC): 8 µg/mL
- MIC ([1]; Citrobacter freundii, CFR UFR83, alone, read-out: MIC): > 32 µg/mL
- MIC ([1]; Citrobacter freundii, CFR UFR146, alone, read-out: MIC): 32 µg/mL
- MIC ([1]; Citrobacter freundii, CFR UFR248, alone, read-out: MIC): 8 µg/mL
- MIC ([1]; Citrobacter freundii, CFR UFR249, alone, read-out: MIC): 8 µg/mL
- MIC ([1]; Citrobacter freundii, CFR UFR250, alone, read-out: MIC): 16 µg/mL
- MIC ([1]; Citrobacter freundii, strain CFR UFR147, compound alone, read-out: MIC): 4 µg/mL
- MIC ([1]; Citrobacter freundii, strain CFR UFR148, compound alone, read-out: MIC): 16 µg/mL
- MIC [1, 6]: 8 µg/mL
- MIC ([1]; Citrobacter freundii, strain CFR UFR252, compound alone, read-out: MIC): 32 µg/mL
- MIC ([1]; Citrobacter freundii, strain CFR UFR253, compound alone, read-out: MIC): 32 µg/mL
- MIC ([1]; Citrobacter freundii, strain CFR UFR254, compound alone, read-out: MIC): 32 µg/mL
- MIC [2, 7]: 32 µg/mL
- MIC [2, 8]: 16 µg/mL
- MIC [2, 9]: > 32 µg/mL
- MIC [3, 10]: 8 µg/mL
- MIC [3, 11]: 8 µg/mL
- MIC [3, 12]: 16 µg/mL
- MIC [3, 13]: 8 µg/mL
- MIC [3, 14]: 32 µg/mL
- MIC [3, 15]: 8 µg/mL
- MIC [3, 16]: 16 µg/mL
- MIC [4, 17]: 32 µg/mL
- MIC [4, 18]: 32 µg/mL
- MIC [4, 19]: > 32 µg/mL
- MIC [4, 20]: 32 µg/mL
- MIC [4, 21]: 32 µg/mL
- MIC [4, 22]: > 32 µg/mL
- MIC [4, 23]: > 32 µg/mL
- MIC [4, 24]: 32 µg/mL
- MIC [4, 25]: 32 µg/mL
- MIC [4, 26]: 16 µg/mL
- MIC [4, 27]: > 32 µg/mL
- MIC ([5]; Proteus mirabilis, PMI UFR82, alone, read-out: MIC): 4 µg/mL
- MIC ([5]; Proteus mirabilis, PMI UFR126, alone, read-out: MIC): 4 µg/mL
- MIC ([5]; Proteus mirabilis, PMI UFR127, alone, read-out: MIC): 8 µg/mL
- MIC [5, 28]: 4 µg/mL
- MIC [5, 29]: 4 µg/mL
- MIC [5, 30]: 4 µg/mL
- MIC ([5]; Proteus mirabilis, PMI UFR133, alone, read-out: MIC): 4 µg/mL
- MIC ([5]; Proteus mirabilis, PMI UFR237, alone, read-out: MIC): 8 µg/mL
- MIC ([5]; Proteus mirabilis, strain PMI UFR131, compound alone, read-out: MIC): 4 µg/mL
- MIC [5, 31]: 8 µg/mL

SMILES: O=C1N2CC(c3ncco3)=CC(C2)N1OC(F)(F)C(=O)[O-].[Li+] (stereo not drawn) [AF2]
- MIC ([1]; Citrobacter freundii, CFR UFR10, alone): 4 µg/mL
- MIC ([1]; Citrobacter freundii, CFR UFR11, alone): > 32 µg/mL
- MIC ([1]; Citrobacter freundii, CFR UFR37, alone): 4 µg/mL
- MIC ([1]; Citrobacter freundii, CFR UFR83, alone): > 32 µg/mL
- MIC ([1]; Citrobacter freundii, CFR UFR146, alone): 32 µg/mL
- MIC ([1]; Citrobacter freundii, CFR UFR248, alone): 8 µg/mL
- MIC ([1]; Citrobacter freundii, strain CFR UFR147, compound alone): 8 µg/mL
- MIC ([1]; Citrobacter freundii, strain CFR UFR148, compound alone): 8 µg/mL
- MIC [1, 6]: 16 µg/mL
- MIC ([1]; Citrobacter freundii, strain CFR UFR254, compound alone): 4 µg/mL
- MIC [2, 7]: 16 µg/mL
- MIC [2, 8]: 16 µg/mL
- MIC [2, 9]: > 32 µg/mL
- MIC [3, 10]: 8 µg/mL
- MIC [3, 11]: 16 µg/mL
- MIC [3, 12]: 16 µg/mL
- MIC [3, 13]: 4 µg/mL
- MIC [3, 14]: 32 µg/mL
- MIC [3, 15]: 4 µg/mL
- MIC [3, 16]: 16 µg/mL
- MIC [4, 17]: 32 µg/mL
- MIC [4, 18]: > 32 µg/mL
- MIC [4, 19]: > 32 µg/mL
- MIC [4, 20]: > 32 µg/mL
- MIC [4, 21]: > 32 µg/mL
- MIC [4, 22]: > 32 µg/mL
- MIC [4, 23]: > 32 µg/mL
- MIC [4, 24]: > 32 µg/mL
- MIC [4, 25]: > 32 µg/mL
- MIC [4, 26]: 32 µg/mL
- MIC [4, 27]: > 32 µg/mL
- MIC [5, 28]: 8 µg/mL
- MIC [5, 29]: 4 µg/mL
- MIC [5, 30]: 4 µg/mL
- MIC [5, 31]: 4 µg/mL

SMILES: CO/N=C(\C(=O)N[C@@H]1C(=O)N2C(C(=O)O)=C(COC(N)=O)CS[C@H]12)c1ccco1 [FUR, Cefuroxime]
- MIC ([1]; strain CFR UFR10, genotype OXA-48): >256 µg/mL
- MIC ([1]; strain CFR UFR11, genotype TEM-1, OXA-1, OXA-48): >256 µg/mL
- MIC ([1]; strain CFR UFR83, genotype TEM-3, AmpC): >256 µg/mL
- MIC ([1]; strain CFR UFR146, genotype TEM-1, KPC-2): >256 µg/mL
- MIC ([1]; strain CFR UFR248, genotype CTX-M-15): >256 µg/mL
- MIC ([1]; strain CFR UFR249, genotype TEM-1, CTX-M-15): >256 µg/mL
- MIC ([1]; strain CFR UFR250, genotype TEM-1, SHV-28, CTX-M-15): >256 µg/mL
- MIC ([1]; strain CFR UFR253, genotype TEM-1, SHV-12, OXA-48): 32 µg/mL
- MIC ([1]; strain CFR UFR254, genotype VEB-1b, OXA-48, qnrA): 32 µg/mL
- MIC ([2]; strain CKO ROU, genotype TEM-1, SHV-12, CTX-M-15, OXA-1, OXA-48): 64 µg/mL
- MIC ([2]; strain CKO UFR149, genotype OXA-48): >256 µg/mL
- MIC ([2]; strain CKO UFR150, genotype TEM-1, OXA-48): 64 µg/mL
- MIC ([3]; strain EAE 49469, genotype AmpC): >128 µg/mL
- MIC ([3]; strain EAE 200261, genotype TEM-x, AmpC): >256 µg/mL
- MIC ([3]; strain EAE UFR199, genotype TEM-1b, SHV-12, KPC-2, OXA-9): >256 µg/mL
- MIC ([3]; strain EAE UFR201, genotype TEM-1, SHV-12, CTX-M-15): >256 µg/mL
- MIC ([3]; strain EAE UFR202, genotype TEM-24): >256 µg/mL
- MIC ([3]; strain EAE UFR213, genotype TEM-24): >256 µg/mL
- MIC ([4]; strain MMO 200321, genotype TEM-1, CTX-M-15, OXA-1): >256 µg/mL
- MIC ([4]; strain MMO UFR144, genotype TEM-1, CTX-M-15): >256 µg/mL
- MIC ([4]; strain MMO UFR240, genotype CTX-M-9): >256 µg/mL
- MIC ([4]; strain MMO UFR241, genotype TEM-1, CTX-M-15): >256 µg/mL
- MIC ([4]; strain MMO UFR242, genotype TEM-52): >256 µg/mL
- MIC ([4]; strain MMO UFR243, genotype DHA-1): 128 µg/mL
- MIC ([4]; strain MMO UFR244, genotype DHA-1): 64 µg/mL
- MIC ([4]; strain MMO UFR245, genotype DHA-1): 128 µg/mL
- MIC ([4]; strain MMO UFR246, genotype DHA-1): 128 µg/mL
- MIC ([4]; strain MMO UFR247, genotype DHA-1): >256 µg/mL
- MIC ([5]; strain PMI UFR82, genotype CMY-2): 16 µg/mL
- MIC ([5]; strain PMI UFR120, genotype TEM-1, SHV-11, CTX-M-14): >256 µg/mL
- MIC ([5]; strain PMI UFR121, genotype TEM-1, TEM-52): >256 µg/mL
- MIC ([5]; strain PMI UFR122, genotype TEM-1, CTX-M-15): >256 µg/mL
- MIC ([5]; strain PMI UFR123, genotype CTX-M-1): >256 µg/mL
- MIC ([5]; strain PMI UFR124, genotype CTX-M-2): >256 µg/mL
- MIC ([5]; strain PMI UFR125, genotype CTX-M-71): >256 µg/mL
- MIC ([5]; strain PMI UFR126, genotype TEM-2, PER-1): >256 µg/mL
- MIC ([5]; strain PMI UFR127, genotype VEB-1): >256 µg/mL
- MIC ([5]; strain PMI UFR129, genotype TEM-1, VEB-6): >256 µg/mL
- MIC ([5]; strain PMI UFR130, genotype CMY-2): 8 µg/mL
- MIC ([5]; strain PMI UFR237, genotype VEB-6): >256 µg/mL
